Data: ChEMBL document CHEMBL1201862, “PubChem BioAssay data set” (2004)
Several values for one entry are separate records, joined by “and”; a condition that tells them apart may be missing. Equal values may be shown once.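 These data come from cells grown in 96-well plates and exposed to compound for 48 hours at five concentrations. Here, GI50 denotes the concentration required for 50% inhibition of growth.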 Activity calls are given as the source filed them. Cut-off read from the data, not from the text of the source: active = GI50 up to about 1.1 µM and inactive = higher.

Key:
Assay in all cases: growth of human tumour cells (NCI), 48 h
HOP-62 = system: HOP-62
HL-60 = system: HL-60
KM-20L2 = system: KM-20L2
LOX IMVI = system: LOX IMVI
NCI/ADR-RES = system: NCI/ADR-RES
MCF7 = system: MCF7
K562 = system: K562
MDA-MB-435 = system: MDA-MB-435
NCI-H460 = system: NCI-H460
HCT-15 = system: HCT-15
COLO 205 = system: COLO 205
MOLT-4 = system: MOLT-4
SW-620 = system: SW-620
U-251 = system: U-251
HCC 2998 = system: HCC 2998
OVCAR-5 = system: OVCAR-5
T47D = system: T47D
CCRF-CEM = system: CCRF-CEM
M14 = system: M14
HT-29 = system: HT-29
KM12 = system: KM12
MDA-N = system: MDA-N
SK-MEL-2 = system: SK-MEL-2
MDA-MB-231 = system: MDA-MB-231
RXF 393 = system: RXF 393
DMS-273 = system: DMS-273
DU-145 = system: DU-145
SR = system: SR
SF-268 = system: SF-268
RPMI-8226 = system: RPMI-8226
OVCAR-3 = system: OVCAR-3
Hs-578T = system: Hs-578T
DLD-1 = system: DLD-1
HOP-18 = system: HOP-18
SN12C = system: SN12C
SF-295 = system: SF-295
HOP-92 = system: HOP-92
XF498 = system: XF498
UO-31 = system: UO-31
LXFL 529 = system: LXFL 529
OVCAR-4 = system: OVCAR-4
NCI-H226 = system: NCI-H226
HCT-116 = system: HCT-116
SK-MEL-5 = system: SK-MEL-5
M19-MEL = system: M19-MEL
UACC-257 = system: UACC-257
Malme-3M = system: Malme-3M
NCI-H23 = system: NCI-H23
SNB-75 = system: SNB-75
786-0 = system: 786-0
SK-MEL-28 = system: SK-MEL-28
SNB-19 = system: SNB-19
A549 = system: A549
NCI-H522 = system: NCI-H522
ACHN = system: ACHN
UACC-62 = system: UACC-62
SNB-78 = system: SNB-78
OVCAR-8 = system: OVCAR-8
SK-OV-3 = system: SK-OV-3
DMS-114 = system: DMS-114
TK-10 = system: TK-10
EKVX = system: EKVX

For `CSc1nc(C)c(Br)c(=O)n1C1OC(COC(C)=O)C(OC(C)=O)C(OC(C)=O)C1OC(C)=O` (stereo unspecified), the GI50 (HOP-62) was 26.8 µM (inactive) and 22 µM (inactive), the GI50 (HL-60) was > 100 µM (inactive) and the GI50 (KM-20L2) was > 100 µM (inactive). The GI50 (LOX IMVI) was > 100 µM (inactive), the GI50 (NCI/ADR-RES) was > 100 µM (inactive) and the GI50 (MCF7) was > 100 µM (inactive). For the same compound, the GI50 (K562) was > 100 µM (inactive), the GI50 (MDA-MB-435) was > 100 µM (inactive) and the GI50 (NCI-H460) was > 100 µM (inactive) and 97.1 µM (inactive). For the same compound, the GI50 (HCT-15) was greater than 100 µM, the GI50 (COLO 205) was > 100 µM (inactive) and the GI50 (MOLT-4) was > 100 µM (inactive). The GI50 (SW-620) was > 100 µM (inactive), the GI50 (U-251) was 39.1 µM (inactive) and 22.4 µM (inactive) and the GI50 (HCC 2998) was > 100 µM (inactive). The GI50 (OVCAR-5) was > 100 µM (inactive) and 94.2 µM (inactive), the GI50 (T47D) was > 100 µM (inactive) and the GI50 (CCRF-CEM) was > 100 µM (inactive). For the same compound, the GI50 (M14) was > 100 µM (inactive), the GI50 (HT-29) was > 100 µM (inactive) and the GI50 (KM12) was > 100 µM (inactive). The GI50 (MDA-N) was > 100 µM (inactive), the GI50 (SK-MEL-2) was 56.5 µM (inactive) and the GI50 (MDA-MB-231) was 63.8 µM (inactive). The GI50 (RXF 393) was 20.5 µM (inactive) and 19.9 µM (inactive), the GI50 (DMS-273) was 27.7 µM (inactive) and the GI50 (DU-145) was > 100 µM (inactive). For the same compound, the GI50 (SR) was > 100 µM (inactive), the GI50 (SF-268) was 34.1 µM (inactive) and 19.6 µM (inactive) and the GI50 (RPMI-8226) was > 100 µM (inactive). For the same compound, the GI50 (OVCAR-3) was > 100 µM (inactive), the GI50 (Hs-578T) was 42.9 µM (inactive) and the GI50 (DLD-1) was > 100 µM (inactive). For the same compound, the GI50 (HOP-18) was 60.4 µM (inactive), the GI50 (SN12C) was > 100 µM (inactive) and the GI50 (SF-295) was 24.2 µM (inactive) and 26.9 µM (inactive). For the same compound, the GI50 (HOP-92) was 20.1 µM (inactive) and 13.6 µM (inactive) and the GI50 (XF498) was 21.2 µM (inactive).
For `OC12c3ccccc3C1CCCCC2N1CCCC1` (stereo unspecified), the GI50 (UO-31) was > 100 µM (inactive), the GI50 (HOP-62) was > 100 µM (inactive) and the GI50 (LXFL 529) was > 100 µM (inactive). The GI50 (HL-60) was > 100 µM (inactive), the GI50 (KM-20L2) was > 100 µM (inactive) and the GI50 (LOX IMVI) was > 100 µM (inactive). For the same compound, the GI50 (OVCAR-4) was > 100 µM (inactive), the GI50 (NCI-H226) was > 100 µM (inactive) and the GI50 (HCT-116) was > 100 µM (inactive). For the same compound, the GI50 (K562) was > 10 µM (inactive), the GI50 (NCI-H460) was > 100 µM (inactive) and the GI50 (HCT-15) was greater than 100 µM. For the same compound, the GI50 (COLO 205) was > 100 µM (inactive), the GI50 (MOLT-4) was > 100 µM (inactive) and the GI50 (SK-MEL-5) was > 100 µM (inactive). For the same compound, the GI50 (SW-620) was > 100 µM (inactive), the GI50 (U-251) was > 100 µM (inactive) and the GI50 (M19-MEL) was > 100 µM (inactive). For the same compound, the GI50 (UACC-257) was > 100 µM (inactive), the GI50 (Malme-3M) was > 100 µM (inactive) and the GI50 (NCI-H23) was > 100 µM (inactive). The GI50 (CCRF-CEM) was > 100 µM (inactive), the GI50 (M14) was > 100 µM (inactive) and the GI50 (HT-29) was > 100 µM (inactive). The GI50 (SNB-75) was > 100 µM (inactive), the GI50 (786-0) was > 100 µM (inactive) and the GI50 (KM12) was > 100 µM (inactive). The GI50 (SK-MEL-28) was > 100 µM (inactive), the GI50 (SNB-19) was > 100 µM (inactive) and the GI50 (A549) was > 100 µM (inactive). The GI50 (NCI-H522) was > 100 µM (inactive), the GI50 (ACHN) was > 100 µM (inactive) and the GI50 (SK-MEL-2) was > 100 µM (inactive). For the same compound, the GI50 (RXF 393) was > 100 µM (inactive), the GI50 (DMS-273) was > 100 µM (inactive) and the GI50 (SR) was > 100 µM (inactive). For the same compound, the GI50 (UACC-62) was > 100 µM (inactive), the GI50 (SF-268) was > 100 µM (inactive) and the GI50 (RPMI-8226) was > 100 µM (inactive). The GI50 (SNB-78) was > 100 µM (inactive), the GI50 (OVCAR-8) was > 100 µM (inactive) and the GI50 (HOP-18) was > 100 µM (inactive). The GI50 (SN12C) was > 100 µM (inactive), the GI50 (SK-OV-3) was > 100 µM (inactive) and the GI50 (SF-295) was > 100 µM (inactive). The GI50 (DMS-114) was > 100 µM (inactive), the GI50 (TK-10) was > 100 µM (inactive) and the GI50 (EKVX) was > 100 µM (inactive).
